Results: ChEMBL document CHEMBL5674879, “Enhancer variants reveal a conserved transcription factor network governed by PU.1 during osteoclast differentiation” (Bone Res, 2018)
Activity calls are given as the source filed them.

Columns and labels:
Type in all cases: functional, cell-based
[1] = test system: Leukemia cell; assay: Downregulation of Nfatc1 mRNA expression in osteoclasts of human CSF1-induced mouse primary bone marrow derived acute myeloid leukemia cells at 250 nM measured by RT-qPCR analysis
[2] = test system: Leukemia cell; assay: Downregulation of Fosl2 mRNA expression in osteoclasts of human CSF1-induced mouse primary bone marrow derived acute myeloid leukemia cells at 250 nM measured by RT-qPCR analysis
[3] = test system: Leukemia cell; assay: Effect on osteoclast differentiation in human CSF1-induced mouse primary bone marrow derived acute myeloid leukemia cells at 250 nM assessed as reduction in PU.1 enrichment at PU.1 enhancers near Nfatc1 measured by Conventional ChIP analysis
[4] = test system: Leukemia cell; assay: Effect on osteoclast differentiation in human CSF1-induced mouse primary bone marrow derived acute myeloid leukemia cells at 250 nM assessed as reduction in PU.1 enrichment at PU.1 enhancers near d Fosl2 measured by Conventional ChIP analysis

Measured: Activity

Cc1sc2c(c1C)C(c1ccc(Cl)cc1)=N[C@@H](CC(=O)OC(C)(C)C)c1nnc(C)n1-2
active: [1] | [2] | [3] | [4]
